Laboratory results taken from PubChem BioAssay (NCI).
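Five concentrations, 48 hours, 96-well plates. TGI is the concentration that stops growth completely.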

Key:
Assay in all cases: inhibition of tumour cell growth, NCI panel, 48 h
[1] = test system: 786-0 renal
[2] = test system: A498 renal
[3] = test system: A549 NSCLC
[4] = test system: ACHN renal
[5] = test system: BT-549 breast
[6] = test system: CAKI-1 renal
[7] = test system: CCRF-CEM leukemia
[8] = test system: COLO 205 colon
[9] = test system: DU-145 prostate
[10] = test system: EKVX NSCLC
[11] = test system: HCC-2998 colon
[12] = test system: HCT-116 colon
[13] = test system: HCT-15 colon
[14] = test system: HL-60(TB) leukemia
[15] = test system: HOP-62 NSCLC
[16] = test system: HOP-92 NSCLC
[17] = test system: HS 578T breast
[18] = test system: HT29 colon
[19] = test system: IGROV1 ovarian
[20] = test system: K-562 leukemia
[21] = test system: KM12 colon
[22] = test system: LOX IMVI melanoma
[23] = test system: M14 melanoma
[24] = test system: MALME-3M melanoma
[25] = test system: MCF7 breast
[26] = test system: MDA-MB-231 breast
[27] = test system: MDA-MB-435
[28] = test system: MDA-N
[29] = test system: MOLT-4 leukemia
[30] = test system: NCI-H226 lung
[31] = test system: NCI-H23 lung
[32] = test system: NCI-H460 lung
[33] = test system: NCI-H522 lung
[34] = test system: NCI/ADR-RES ovarian
[35] = test system: OVCAR-3 ovarian
[36] = test system: OVCAR-4 ovarian
[37] = test system: OVCAR-5 ovarian
[38] = test system: OVCAR-8 ovarian
[39] = test system: PC-3 prostate
[40] = test system: RPMI-8226 leukemia
[41] = test system: RXF 393 renal
[42] = test system: SF-268 CNS
[43] = test system: SF-295 CNS
[44] = test system: SF-539 CNS
[45] = test system: SK-MEL-2 melanoma
[46] = test system: SK-MEL-28 melanoma
[47] = test system: SK-MEL-5 melanoma
[48] = test system: SK-OV-3 ovarian
[49] = test system: SN12C renal
[50] = test system: SNB-19 CNS
[51] = test system: SNB-75 CNS
[52] = test system: SW-620 colon
[53] = test system: T-47D breast
[54] = test system: TK-10 renal
[55] = test system: U251 CNS
[56] = test system: UACC-257 melanoma
[57] = test system: UACC-62 melanoma
[58] = test system: UO-31 renal

O=C(O)CC1OCC=C2CN3CCC45C6=CC(=O)C(=O)C([N+](=O)[O-])=C6NC4C1C2CC35 (stereo not drawn)
TGI [1]: > 100 µM | TGI [2]: > 100 µM | TGI [3]: > 100 µM | TGI [4]: > 100 µM | TGI [5]: > 100 µM | TGI [6]: > 100 µM | TGI [7]: 61.8 µM | TGI [8]: > 100 µM | TGI [9]: > 100 µM | TGI [10]: > 100 µM | TGI [11]: > 100 µM | TGI [12]: > 100 µM | TGI [13]: > 100 µM | TGI [14]: > 100 µM | TGI [15]: > 100 µM | TGI [16]: > 100 µM | TGI [17]: > 100 µM | TGI [18]: > 100 µM | TGI [19]: > 100 µM | TGI [20]: > 100 µM | TGI [21]: > 100 µM | TGI [22]: > 100 µM | TGI [23]: > 100 µM | TGI [24]: > 100 µM | TGI [25]: > 100 µM | TGI [26]: > 100 µM | TGI [27]: 31.3 µM | TGI [28]: > 100 µM | TGI [29]: > 100 µM | TGI [30]: > 100 µM | TGI [31]: > 100 µM | TGI [32]: > 100 µM | TGI [33]: > 100 µM | TGI [34]: > 100 µM | TGI [35]: > 100 µM | TGI [36]: > 100 µM | TGI [37]: > 100 µM | TGI [38]: > 100 µM | TGI [39]: > 100 µM | TGI [40]: > 100 µM | TGI [41]: > 100 µM | TGI [42]: > 100 µM | TGI [43]: > 100 µM | TGI [44]: > 100 µM | TGI [45]: > 100 µM | TGI [46]: > 100 µM | TGI [47]: > 100 µM | TGI [48]: > 100 µM | TGI [49]: > 100 µM | TGI [50]: > 100 µM | TGI [51]: > 100 µM | TGI [52]: > 100 µM | TGI [53]: > 100 µM | TGI [54]: > 100 µM | TGI [55]: > 100 µM | TGI [56]: > 100 µM | TGI [57]: > 100 µM | TGI [58]: > 100 µM

COc1cc2c(cc1OC)C(C)N(C)c1c-2c(OC(C)=O)cc2cc(OC)c(OC)cc12 (stereo not drawn)
TGI [1]: 62 µM | TGI [2]: > 52.9 µM | TGI [3]: > 69.2 µM | TGI [4]: 97 µM | TGI [5]: 47.1 µM | TGI [6]: 49.5 µM | TGI [7]: > 100 µM | TGI [8]: 20 µM | TGI [9]: 40.8 µM | TGI [10]: 61.9 µM | TGI [11]: > 60.1 µM | TGI [12]: 35.2 µM | TGI [13]: > 81.2 µM | TGI [15]: > 79.7 µM | TGI [17]: > 57.1 µM | TGI [18]: > 58.9 µM | TGI [20]: > 100 µM | TGI [21]: 34.1 µM | TGI [22]: 39.8 µM | TGI [23]: 28.2 µM | TGI [24]: 14.8 µM | TGI [25]: 40.2 µM | TGI [26]: 27.9 µM | TGI [27]: 35.6 µM | TGI [28]: 38.3 µM | TGI [29]: > 100 µM | TGI [30]: > 44.1 µM | TGI [31]: 36.7 µM | TGI [32]: 27.6 µM | TGI [33]: 19.2 µM | TGI [34]: 33.2 µM | TGI [35]: > 100 µM | TGI [36]: > 45.4 µM | TGI [37]: > 100 µM | TGI [38]: 33.2 µM | TGI [39]: > 90.8 µM | TGI [40]: > 59 µM | TGI [41]: 31.1 µM | TGI [42]: > 100 µM | TGI [43]: 53.4 µM | TGI [44]: 40.6 µM | TGI [45]: 30.2 µM | TGI [46]: > 60.1 µM | TGI [47]: 15.8 µM | TGI [48]: > 100 µM | TGI [49]: > 46.2 µM | TGI [50]: > 100 µM | TGI [51]: > 79 µM | TGI [52]: > 78.2 µM | TGI [53]: 24.1 µM | TGI [54]: > 100 µM | TGI [55]: > 68.5 µM | TGI [56]: 24.2 µM | TGI [57]: 39.3 µM | TGI [58]: > 92.1 µM
